Tests used:
[1] = system: A2780 human ovarian carcinoma cells; experiment: Co-culture killing of human ovarian carcinoma cells (Example 4); format: cell-based; conditions: pure drug, 100 μg cisplatin to 5×10^6 A2780 cells, 72 hours; FIG. 4E
Method: (§1) the third group of H22 mouse hepatoma cells and the third group of the A2780 human ovarian carcinoma cells are left without any treatment.
(§2) 4) half of the micro-particles taken from the above test group, and half of the cell vesicles taken from the control group are respectively co-cultured with 5×10^4 tumor cells taken from the third group of tumor cells of different types for 72 hours within a 24-pore plate, the death of the tumor cells is observed, wherein the cell vesicles that are co-cultured with the tumor cells are the cell vesicles derived from the same type of tumor cells, and the micro-particles that are co-cultured with the tumor cells are the micro-particles formed after the cell vesicles derived from the same type of tumor cells have the chemotherapeutic drug wrapped therein;

H22 mouse hepatoma cells = experiment: Co-culture killing of mouse hepatoma cells (Example 4); format: cell-based; conditions: pure drug, 10 μg methotrexate to 5×10^6 H22 cells, 72 hours; FIG. 4B
Method: as §1, §2

Structure (SMILES) | death of the tumor cells [1] | death of the tumor cells (H22 mouse hepatoma cells)
N.N.[Cl][Pt][Cl] [cisplatin] | there are still certain amount of tumor cells survived | –
CN(Cc1cnc2nc(N)nc(N)c2n1)c1ccc(C(=O)N[C@@H](CCC(=O)O)C(=O)O)cc1 [methotrexate] | – | there are still certain amount of tumor cells survived
